Measured values taken from US20030032587A1, “Urocortin peptides” (The Salk Institute for Biological Studies, priority 1995, published 2003).
Bridges are numbered along the chain shown (N, C = ends). Where no end group is shown, it is not given here. [ ]: non-standard residue; d: D form.

Key:
[1] = tested on: rat anterior pituitary cells; test: ACTH secretion by anterior pituitary cell cultures in the presence of a challenge dose of ovine CRF (antagonist test); assay type: cell-based; conditions: challenge dose of ovine CRF; relative to [D-Phe12,Nle21,38]-r/hCRF(12-41)
Excerpt: A straightforward assay using rat anterior pituitary cells in monolayer culture can be carried out to determine whether a candidate peptide thereof will function as a CRF agonist and stimulate ACTH secretion by activating CRF receptors on such cells. The procedure which is used is that generally set forth in Endocrinology, 91, supra. A very similar assay is used to test for antagonistic properties, using a challenge dose of oCRF or the like.
An in vivo test measuring elevation of mean arterial blood pressure as a result of iv injection is also simply and straightforwardly performed.

[2] = tested on: mammalian mean arterial blood pressure; test: in vivo test measuring elevation of mean arterial blood pressure as a result of iv injection; conditions: result in words; indicative of a Ucn antagonist
Excerpt: The peptide, Ucn(11-40), having the amino acid sequence (see SEQ ID NO: 8): […] is synthesized in the manner described in Example I. To evaluate the biological activity of a candidate peptide as a Ucn antagonist (which will be indicative of its effective binding to CRF receptors), the previously mentioned assay from Endocrinology, 91, supra, is run in the presence of a challenge dose of ovine CRF. […] An in vivo test measuring elevation of mean arterial blood pressure as a result of iv injection is also simply and straightforwardly performed.

[3] = biological target: CRF receptors on anterior pituitary cells in culture; test: cell-based or functional assay

Row | Molecule | inhibition of ACTH secretion in vitro, times as effective as the Standard Antagonist (confidence limits) [1] | vasoconstrictive activity causing elevation of mean arterial blood pressure [2] | ACTH secretion, anterior pituitary cell cultures, potency relative to r/hCRF [3] [times r/hCRF]
1 | H-D-Pro-D-Phe-His-Leu-Leu-Arg-Thr-Leu-Leu-Glu-Leu-Ala-Arg-Thr-Gln-Ser-Gln-Arg-Glu-Glu-Ala-D-Glu-Lys-Asn-Arg-Ile-Ile-Phe-Asp-Ser-Val-NH2 (H-[dP][dF]HLLRTLLELARTQSQREEA[dE]KNRIIFDSV-NH2; lactam 20-23; SMILES CC[C@H](C)[C@H](NC(=O)[C@H](CCCNC(=N)N)NC(=O)[C@H](CC(N)=O)NC(=O)[C@@H]1CCCCNC(=O)CC[C@H](NC(=O)[C@H](CCC(=O)O)NC(=O)[C@H](CCCNC(=N)N)NC(=O)[C@H](CCC(N)=O)NC(=O)[C@H](CO)NC(=O)[C@H](CCC(N)=O)NC(=O)[C@@H](NC(=O)[C@H](CCCNC(=N)N)NC(=O)[C@H](C)NC(=O)[C@H](CC(C)C)NC(=O)[C@H](CCC(=O)O)NC(=O)[C@H](CC(C)C)NC(=O)[C@H](CC(C)C)NC(=O)[C@@H](NC(=O)[C@H](CCCNC(=N)N)NC(=O)[C@H](CC(C)C)NC(=O)[C@H](CC(C)C)NC(=O)[C@H](Cc2c[nH]cn2)NC(=O)[C@@H](Cc2ccccc2)NC(=O)[C@H]2CCCN2)[C@@H](C)O)[C@@H](C)O)C(=O)N[C@@H](C)C(=O)N[C@H](CCC(=O)O)C(=O)N1)C(=O)N[C@H](C(=O)N[C@@H](Cc1ccccc1)C(=O)N[C@@H](CC(=O)O)C(=O)N[C@@H](CO)C(=O)N[C@H](C(N)=O)C(C)C)[C@@H](C)CC) | 4.99 (2.26-11.55) | significant mammalian vasoconstrictive activity | –
2 | H-Pro-D-Phe-His-Leu-Leu-Arg-Thr-Leu-Leu-Glu-Leu-Ala-Arg-Thr-Gln-Ser-Gln-Arg-Glu-Glu-Ala-D-Glu-Lys-Asn-Arg-Ile-Ile-Phe-Asp-Ser-Val-NH2 (H-P[dF]HLLRTLLELARTQSQREEA[dE]KNRIIFDSV-NH2; lactam 20-23; SMILES CC[C@H](C)[C@H](NC(=O)[C@H](CCCNC(=N)N)NC(=O)[C@H](CC(N)=O)NC(=O)[C@@H]1CCCCNC(=O)CC[C@H](NC(=O)[C@H](CCC(=O)O)NC(=O)[C@H](CCCNC(=N)N)NC(=O)[C@H](CCC(N)=O)NC(=O)[C@H](CO)NC(=O)[C@H](CCC(N)=O)NC(=O)[C@@H](NC(=O)[C@H](CCCNC(=N)N)NC(=O)[C@H](C)NC(=O)[C@H](CC(C)C)NC(=O)[C@H](CCC(=O)O)NC(=O)[C@H](CC(C)C)NC(=O)[C@H](CC(C)C)NC(=O)[C@@H](NC(=O)[C@H](CCCNC(=N)N)NC(=O)[C@H](CC(C)C)NC(=O)[C@H](CC(C)C)NC(=O)[C@H](Cc2c[nH]cn2)NC(=O)[C@@H](Cc2ccccc2)NC(=O)[C@@H]2CCCN2)[C@@H](C)O)[C@@H](C)O)C(=O)N[C@@H](C)C(=O)N[C@H](CCC(=O)O)C(=O)N1)C(=O)N[C@H](C(=O)N[C@@H](Cc1ccccc1)C(=O)N[C@@H](CC(=O)O)C(=O)N[C@@H](CO)C(=O)N[C@H](C(N)=O)C(C)C)[C@@H](C)CC) | 2.74 (1.02-8.02) | significant mammalian vasoconstrictive activity | –
3 | H-D-Tyr-His-Leu-Leu-Arg-Thr-Leu-Leu-Glu-Leu-Ala-Arg-Thr-Gln-Ser-Gln-Arg-Glu-Glu-Ala-Glu-Lys-Asn-Arg-Ile-Ile-Phe-Asp-Ser-Val-NH2 (H-[dY]HLLRTLLELARTQSQREEAEKNRIIFDSV-NH2; lactam 19-22; SMILES CC[C@H](C)[C@H](NC(=O)[C@H](CCCNC(=N)N)NC(=O)[C@H](CC(N)=O)NC(=O)[C@@H]1CCCCNC(=O)CC[C@H](NC(=O)[C@H](CCC(=O)O)NC(=O)[C@H](CCCNC(=N)N)NC(=O)[C@H](CCC(N)=O)NC(=O)[C@H](CO)NC(=O)[C@H](CCC(N)=O)NC(=O)[C@@H](NC(=O)[C@H](CCCNC(=N)N)NC(=O)[C@H](C)NC(=O)[C@H](CC(C)C)NC(=O)[C@H](CCC(=O)O)NC(=O)[C@H](CC(C)C)NC(=O)[C@H](CC(C)C)NC(=O)[C@@H](NC(=O)[C@H](CCCNC(=N)N)NC(=O)[C@H](CC(C)C)NC(=O)[C@H](CC(C)C)NC(=O)[C@H](Cc2c[nH]cn2)NC(=O)[C@H](N)Cc2ccc(O)cc2)[C@@H](C)O)[C@@H](C)O)C(=O)N[C@@H](C)C(=O)N[C@@H](CCC(=O)O)C(=O)N1)C(=O)N[C@H](C(=O)N[C@@H](Cc1ccccc1)C(=O)N[C@@H](CC(=O)O)C(=O)N[C@@H](CO)C(=O)N[C@H](C(N)=O)C(C)C)[C@@H](C)CC) | 4.01 (2.32-7.05) | significant mammalian vasoconstrictive activity | –
4 | H-D-Phe-His-Leu-Leu-Arg-Thr-Leu-Leu-Glu-Leu-Ala-Arg-Thr-Gln-Ser-Gln-Arg-Glu-Arg-Ala-Glu-Gln-Asn-Arg-Ile-Ile-Phe-Asp-Ser-Val-NH2 (H-[dF]HLLRTLLELARTQSQRERAEQNRIIFDSV-NH2; SMILES CC[C@H](C)[C@H](NC(=O)[C@H](CCCNC(=N)N)NC(=O)[C@H](CC(N)=O)NC(=O)[C@H](CCC(N)=O)NC(=O)[C@H](CCC(=O)O)NC(=O)[C@H](C)NC(=O)[C@H](CCCNC(=N)N)NC(=O)[C@H](CCC(=O)O)NC(=O)[C@H](CCCNC(=N)N)NC(=O)[C@H](CCC(N)=O)NC(=O)[C@H](CO)NC(=O)[C@H](CCC(N)=O)NC(=O)[C@@H](NC(=O)[C@H](CCCNC(=N)N)NC(=O)[C@H](C)NC(=O)[C@H](CC(C)C)NC(=O)[C@H](CCC(=O)O)NC(=O)[C@H](CC(C)C)NC(=O)[C@H](CC(C)C)NC(=O)[C@@H](NC(=O)[C@H](CCCNC(=N)N)NC(=O)[C@H](CC(C)C)NC(=O)[C@H](CC(C)C)NC(=O)[C@H](Cc1c[nH]cn1)NC(=O)[C@H](N)Cc1ccccc1)[C@@H](C)O)[C@@H](C)O)C(=O)N[C@H](C(=O)N[C@@H](Cc1ccccc1)C(=O)N[C@@H](CC(=O)O)C(=O)N[C@@H](CO)C(=O)N[C@H](C(N)=O)C(C)C)[C@@H](C)CC) [[D-Phe^11]-Ucn(11-40)] | 0.551 (0.333-0.857) | significant mammalian vasoconstrictive activity | –
5 | H-D-Phe-His-Leu-Leu-Arg-Thr-Leu-Leu-Glu-Leu-Ala-Arg-Thr-Gln-Ser-Gln-Arg-Glu-Glu-Ala-Glu-Lys-Asn-Arg-Ile-Ile-Phe-Asp-Ser-Val-NH2 (H-[dF]HLLRTLLELARTQSQREEAEKNRIIFDSV-NH2; lactam 19-22 (inferred)) | 10.34 (4.27-25.58) | significant mammalian vasoconstrictive activity | –
6 | DNPSLSIDLTFHLLRTLLELARTQSQRERAEQNRIIFDSV-NH2 [Human Ucn(1-40)] | – | – | 3.1
